Data as given in patent publication US7683062B2, “Crystalline form” (sanofi-aventis U.S. LLC, priority 2005, dated 2010).
Blank lines part the entries; values can stand above or below the molecule they belong to.

Key:
[1] = Preliminary absorption studies with standard formulations; format: in vivo
[2] = Stability testing of polymorphic form (FTIR); format: physicochemical
Experimental: Fourier Transform IR spectra were obtained with a Nicolet 750 Magna brand system. The drug substance was ground with dry potassium bromide (KBr) at a concentration of 1 mg drug substance/200 mg KBr and compressed into a disk (200 mg) at 10,000 lbs for analysis.
Samples were analyzed at 2 months. The chamber humidity was controlled via a saturated sodium chloride aqueous solution.

[3] = system: animal models of rheumatoid arthritis; assay: Animal models of rheumatoid arthritis; format: in vivo; details: by modulating the immune response
[4] = target: peripheral-type benzodiazepine receptors (Homo sapiens, UniProt P30536); details: cited from earlier work
Chain of peripheral-type benzodiazepine receptors (P30536 whole entry): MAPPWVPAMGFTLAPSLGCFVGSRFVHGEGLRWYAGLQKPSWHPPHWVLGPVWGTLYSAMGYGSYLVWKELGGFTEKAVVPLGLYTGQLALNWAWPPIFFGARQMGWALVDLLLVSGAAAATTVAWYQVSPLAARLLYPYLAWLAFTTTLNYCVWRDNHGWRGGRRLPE

absorption of the drug [1]: limited absorption
Structure (SMILES): CN(C)C(=O)Cc1nn(-c2ccccc2)c(=O)c2c1c1ccc(Cl)cc1n2C [Form I, 7-chloro-N,N,5-trimethyl-4-oxo-3-phenyl-3,5-dihydro-4H-pyridazino[4,5-b]indole-1-acetamide]

physical stability (conversion into other form) ([2]; normal storage conditions (room temperature)): does not convert into any other form
Structure (SMILES): CN(C)C(=O)Cc1nn(-c2ccccc2)c(=O)c2c1c1ccc(Cl)cc1n2C [Form II, 7-chloro-N,N,5-trimethyl-4-oxo-3-phenyl-3,5-dihydro-4H-pyridazino[4,5-b]indole-1-acetamide]
physical stability (conversion to Form I by FTIR) ([2]; 50° C./75% relative humidity, open glass vials, two months, FIG. 9): no changes indicative of conversion to Form I

Structure (SMILES): CN(C)C(=O)Cc1nn(-c2ccccc2)c(=O)c2c1c1ccc(Cl)cc1n2C [7-Chloro-N,N,5-trimethyl-4-oxo-3-phenyl-3,5-dihydro-4H-pyridazino[4,5-b]indole-1-acetamide]
pharmacological activity in animal models of rheumatoid arthritis [3]: has shown pharmacological activity
affinity for the peripheral-type benzodiazepine receptors [4]: high affinity
